Data taken from EPA's ToxRefDB 2.

Legend:
primate [1] = details: Sub-acute repeat dose toxicity, Oral, Gavage/Intubation, dose end: 7 day, group: systemic
rat [2] = details: Sub-acute repeat dose toxicity, Oral, Gavage/Intubation, dose end: 7 day, group: systemic
rat [3] = details: Sub-acute repeat dose toxicity, sprague dawley, Oral, Gavage/Intubation, dose end: 14 day, group: systemic
primate [4] = details: Sub-acute repeat dose toxicity, Oral, Gavage/Intubation, dose end: 14 day, group: systemic
rat [5] = details: Prenatal developmental toxicity study, sprague dawley, Oral, Gavage/Intubation, dose end: 15 GD
rat [6] = details: Prenatal developmental toxicity study; sprague dawley; Oral; Gavage/Intubation; dose end: 15 GD; group: maternal; systemic / in life observation / clinical signs / post-dosing rooting in bedding + systemic / in life observation / food consumption / food …
rat [7] = details: Subchronic oral toxicity in rodents, sprague dawley, Gavage/Intubation, dose end: 92 day, group: systemic, systemic / pathology microscopic / stomach / thickened
rat [8] = details: Subchronic oral toxicity in rodents, sprague dawley, Feed, dose end: 13 week, group: systemic
rat [9] = details: Prenatal developmental toxicity study, sprague dawley, Oral, Gavage/Intubation, dose end: 16 GD
dog [10] = details: Subchronic oral toxicity in nonrodent, beagle, Feed, dose end: 90 day, group: systemic
rat [11] = details: Subchronic oral toxicity in rodents, sprague dawley, Gavage/Intubation, dose end: 90 day, group: systemic, systemic / pathology microscopic / stomach / hyperkeratosis + systemic / pathology microscopic / stomach / hyperplasia
rabbit = details: Prenatal developmental toxicity study, himalayan, Oral, Gavage/Intubation, dose end: 28 GD
mouse [12] = details: Subchronic oral toxicity in rodents, other, Feed, dose end: 90 day, group: systemic
rat [13] = details: Multigenerational reproductive toxicity study, wistar, Oral, Feed, dose end: 2 generation
mouse [14] = details: Carcinogenicity, other, Oral, Feed, dose end: 18 month, group: systemic
rat [15] = details: Carcinogenicity, wistar, Oral, Feed, dose end: 24 month, group: systemic
dog [16] = details: Chronic toxicity, beagle, Oral, Feed, dose end: 52 week, group: systemic
dog [17] = details: Subchronic oral toxicity in nonrodent, beagle, Feed, dose end: 90 day, group: systemic; remark: listed apart in the source
rat [18] = details: Chronic toxicity, wistar, Oral, Feed, dose end: 104 week, group: systemic
rat [19] = details: Subchronic oral toxicity in rodents, wistar, Feed, dose end: 90 day, group: systemic, systemic / organ weight / thyroid gland / absolute + systemic / organ weight / thyroid gland / relative to body weight + systemic / …
[20] = systemic / clinical chemistry / phosphorus / phosphorus + systemic / clinical chemistry / sodium / sodium + systemic / clinical chemistry / …
[21] = systemic / pathology microscopic / vagina / prolapse + systemic / in life observation / clinical signs / vomitting + systemic / in life …
[22] = systemic / in life observation / mortality / mortality + systemic / pathology microscopic / stomach / degeneration + systemic / clinical …
[23] = systemic / clinical chemistry / albumin / albumin + systemic / clinical chemistry / globulins / globulins + systemic / pathology microscopic…
[24] = systemic / in life observation / body weight / body weight
[25] = systemic / in life observation / body weight / body weight + systemic / clinical chemistry / chloride / chloride + systemic / clinical …
[26] = group: developmental, developmental / developmental malformation / bone / [other]
[27] = group: maternal, systemic / in life observation / body weight / body weight + systemic / in life observation / clinical signs / [other] + systemic / in life …
[28] = systemic / in life observation / body weight / body weight + systemic / in life observation / food consumption / food efficiency + systemic…
[29] = group: developmental, developmental / developmental malformation / bone / incomplete ossification + developmental / developmental malformation / bone / unossified…
[30] = group: maternal, systemic / in life observation / body weight / body weight gain + systemic / in life observation / food consumption / food consumption + …
[31] = systemic / in life observation / body weight / body weight + systemic / in life observation / food consumption / food consumption + systemic…
[32] = group: developmental, developmental / developmental malformation / bone / incomplete ossification
[33] = group: maternal, reproductive / reproductive performance / aborted / aborted + reproductive / reproductive performance / premature delivery / premature …
[34] = systemic / organ weight / liver / absolute
[35] = systemic / organ weight / liver / absolute + systemic / organ weight / liver / relative to body weight + systemic / pathology microscopic / …
[36] = group: offspring, systemic / in life observation / body weight / offspring (pup) weight + systemic / in life observation / body weight / offspring (pup) …
[37] = group: offspring, systemic / organ weight / thymus / absolute
[38] = group: parental, systemic / pathology microscopic / liver / degeneration + systemic / pathology microscopic / liver / hypertrophy
[39] = group: reproductive, reproductive / reproductive performance / implantations / implantations
[40] = systemic / in life observation / body weight / body weight + systemic / organ weight / liver / absolute + systemic / organ weight / liver / …
[41] = systemic / clinical chemistry / alkaline phosphatase (alp/alk) / alkaline phosphatase (alp/alk) + systemic / organ weight / liver / absolute…
[42] = systemic / hematology / blood clotting / blood clotting - prothrombin time
[43] = systemic / clinical chemistry / alanine aminotransferase (alt/sgpt) / alanine aminotransferase (alt/sgpt) + systemic / clinical chemistry / …
[44] = systemic / organ weight / thyroid gland / absolute + systemic / pathology microscopic / thyroid gland / hyperplasia + systemic / pathology …

Structure (SMILES): CCn1nc(C)c2c1C(=O)NCC(c1ccc(O)cc1)=N2
- LOAEL (primate [1]; [20]): > 50 mg/kg/day
- NOAEL (primate [1]; [20]): ≥ 50 mg/kg/day
- LEL (primate [1]; [21]): 10 mg/kg/day
- NEL (primate [1]; [21]): < 10 mg/kg/day
- LOAEL (rat [2]; [22]): > 300 mg/kg/day
- NOAEL (rat [2]; [22]): ≥ 300 mg/kg/day
- LEL (rat [2]; systemic / pathology microscopic / heart / fibrosis + systemic / pathology microscopic / heart / hemorrhage + systemic / pathology …): 80 mg/kg/day
- LOAEL (rat [3]; [23]): > 80 mg/kg/day
- NOAEL (rat [3]; [23]): ≥ 80 mg/kg/day
- NEL (rat [3]; systemic / organ weight / testes / absolute + systemic / pathology microscopic / blood vessel / inflammation + systemic / pathology …): 20 mg/kg/day
- LEL (rat [3]; systemic / organ weight / testes / absolute + systemic / pathology microscopic / heart / necrosis + systemic / pathology microscopic / …): 40 mg/kg/day
- LEL (primate [4]; [24]): 5 mg/kg/day
- NEL (primate [4]; [24]): < 5 mg/kg/day
- LOAEL (primate [4]; [25]): > 20 mg/kg/day
- NOAEL (primate [4]; [25]): ≥ 20 mg/kg/day

Structure (SMILES): CSc1nc(NC2CC2)nc(NC(C)(C)C)n1 [Cybutryne]
- LEL (rat [5]; [26]): 300 mg/kg/day
- LOAEL (rat [5]; [26]): > 300 mg/kg/day
- NEL (rat [5]; [26]): 150 mg/kg/day
- NOAEL (rat [5]; [26]): ≥ 300 mg/kg/day
- LOAEL (rat [5]; group: maternal, systemic / in life observation / body weight / body weight + systemic / in life observation / body weight / body weight gain): 300 mg/kg/day
- LEL (rat [5]; group: maternal, systemic / in life observation / body weight / body weight + systemic / in life observation / clinical signs / [other]): 150 mg/kg/day
- NEL (rat [5]; [27]): 50 mg/kg/day
- NOAEL (rat [5]; [27]): 150 mg/kg/day
- LEL (rat [6]): 150 mg/kg/day
- LOAEL (rat [6]): 150 mg/kg/day
- NEL (rat [6]): 50 mg/kg/day
- NOAEL (rat [6]): 50 mg/kg/day

Structure (SMILES): O=c1[nH]sc2ccccc12 [1,2-Benzisothiazolin-3-one]
- LEL (rat [7]): 10 mg/kg/day
- LOAEL (rat [7]): 10 mg/kg/day
- NEL (rat [7]): < 10 mg/kg/day
- NOAEL (rat [7]): < 10 mg/kg/day
- LEL (rat [8]; [24]): 69 mg/kg/day
- LOAEL (rat [8]; [24]): 69 mg/kg/day
- NEL (rat [8]; [28]): 15.3 mg/kg/day
- NOAEL (rat [8]; [28]): 15.3 mg/kg/day
- LOAEL (rat [9]; [29]): 100 mg/kg/day
- NEL (rat [9]; [29]): 10 mg/kg/day
- NOAEL (rat [9]; [29]): 40 mg/kg/day
- LEL (rat [9]; group: developmental, developmental / developmental malformation / bone / unossified): 40 mg/kg/day
- LOAEL (rat [9]; group: maternal, systemic / in life observation / body weight / body weight gain + systemic / in life observation / food consumption / food consumption): 100 mg/kg/day
- NEL (rat [9]; [30]): 10 mg/kg/day
- NOAEL (rat [9]; [30]): 40 mg/kg/day
- LEL (rat [9]; group: maternal, systemic / in life observation / clinical signs / abnormal respiratory sounds): 40 mg/kg/day
- LOAEL (dog [10]; systemic / in life observation / body weight / body weight + systemic / in life observation / food consumption / food consumption): 89 mg/kg/day
- LEL (dog [10]; [31]): 89 mg/kg/day
- NEL (dog [10]; [31]): 38 mg/kg/day
- NOAEL (dog [10]; [31]): 38 mg/kg/day
- LEL (rat [11]): 10 mg/kg/day
- LOAEL (rat [11]): > 10 mg/kg/day
- NOAEL (rat [11]): ≥ 10 mg/kg/day

Structure (SMILES): O=C(Nc1ccccc1-c1ccc(Cl)cc1)c1cccnc1Cl [Boscalid]
- LEL (rabbit; [32]): 1000 mg/kg/day
- LOAEL (rabbit; [32]): > 1000 mg/kg/day
- NEL (rabbit; [32]): 300 mg/kg/day
- NOAEL (rabbit; [32]): ≥ 1000 mg/kg/day
- LEL (rabbit; [33]): 1000 mg/kg/day
- LOAEL (rabbit; [33]): 1000 mg/kg/day
- NEL (rabbit; [33]): 300 mg/kg/day
- NOAEL (rabbit; [33]): 300 mg/kg/day
- LEL (mouse [12]; [34]): 42 mg/kg/day
- NEL (mouse [12]; [34]): < 42 mg/kg/day
- LOAEL (mouse [12]; [35]): 788 mg/kg/day
- NOAEL (mouse [12]; [35]): 197 mg/kg/day
- LOAEL (rat [13]; [36]): 124 mg/kg/day
- NOAEL (rat [13]; [36]): 12.3 mg/kg/day
- LEL (rat [13]; [37]): 12.3 mg/kg/day
- NEL (rat [13]; [37]): < 12.3 mg/kg/day
- LOAEL (rat [13]; group: parental, systemic / pathology microscopic / liver / degeneration): 1030 mg/kg/day
- NEL (rat [13]; [38]): 10.1 mg/kg/day
- NOAEL (rat [13]; [38]): 101 mg/kg/day
- LEL (rat [13]; group: parental, systemic / pathology microscopic / liver / hypertrophy): 101 mg/kg/day
- LEL (rat [13]; [39]): 10.7 mg/kg/day
- LOAEL (rat [13]; [39]): > 1060 mg/kg/day
- NEL (rat [13]; [39]): < 10.7 mg/kg/day
- NOAEL (rat [13]; [39]): ≥ 1060 mg/kg/day
- LOAEL (mouse [14]; [24]): 331 mg/kg/day
- NEL (mouse [14]; [40]): 13 mg/kg/day
- NOAEL (mouse [14]; [40]): 65 mg/kg/day
- LEL (mouse [14]; systemic / in life observation / body weight / body weight + systemic / organ weight / liver / relative to body weight): 65 mg/kg/day
- NEL (rat [15]; systemic / in life observation / mortality / mortality + systemic / in life observation / body weight / body weight + systemic / in life …): 1020 mg/kg/day
- LOAEL (rat [15]; systemic / pathology microscopic / thyroid gland / hyperplasia + systemic / pathology microscopic / thyroid gland / hypertrophy): 116 mg/kg/day
- NOAEL (rat [15]; systemic / pathology microscopic / thyroid gland / hyperplasia + systemic / pathology microscopic / thyroid gland / hypertrophy + systemic…): 23 mg/kg/day
- LOAEL (dog [16]; systemic / clinical chemistry / alkaline phosphatase (alp/alk) / alkaline phosphatase (alp/alk) + systemic / organ weight / liver / absolute): 57.4 mg/kg/day
- LEL (dog [16]; [41]): 57.4 mg/kg/day
- NEL (dog [16]; [41]): 21.8 mg/kg/day
- NOAEL (dog [16]; [41]): 21.8 mg/kg/day
- LOAEL (dog [17]; [41]): 78.1 mg/kg/day
- NOAEL (dog [17]; [41]): 7.6 mg/kg/day
- LEL (dog [17]; [42]): 8.1 mg/kg/day
- NEL (dog [17]; [42]): < 8.1 mg/kg/day
- LEL (rat [18]; [43]): 5.9 mg/kg/day
- NEL (rat [18]; [43]): < 5.9 mg/kg/day
- LOAEL (rat [18]; [44]): 110 mg/kg/day
- NOAEL (rat [18]; [44]): 21.9 mg/kg/day
- LEL (rat [19]): 137 mg/kg/day
- LOAEL (rat [19]): 137 mg/kg/day
- NEL (rat [19]): 34 mg/kg/day
- NOAEL (rat [19]): 34 mg/kg/day
